Source: patent US20030130636A1, “System for improving skin health of absorbent article wearers” (priority 2001, published 2003)
Values joined by “and” are separate entries in the source; they are usually repeats but may differ in a detail not shown here. Identical values can stand only once.

Columns and labels:
EPIDERM skin culture [1] = test: MTT assay, viability of EPIDERM skin culture; format: cell-based, human; details: 0.4% (w/v) in PBS + protease insult, relative to control+control
From the text: The MTT dye is taken up by the cells. The reduction of the dye as a result of cellular metabolism can be used to measure the cytotoxicity of the test compositions. In order to confirm viability, inserts of the EPIDERM skin culture that have already been subjected to the test compositions and biological insults are removed from their media and are washed consecutively through immersion in three different beakers of PBS. Fresh PBS is used for each test composition or control being evaluated. The PBS is discarded onto paper towel. The EPIDERM skin culture inserts are then patted onto paper towel and placed into the wells of a 24 well plate containing 300 microliters of pre-warmed media. After all of the EPIDERM skin culture inserts are washed, they are transferred to new 24 well plates containing 300 microliters of the MTT reagent. […] The plates are incubated for 2-3 hours in a 37° C., 5% CO2 incubator. After incubation, the EPIDERM skin culture inserts are transferred to 24 well plates and are immersed in 2 milliliters of MTT extraction buffer. The extraction buffer extracts the MTT reagent from the cells. […] The optical density (OD) of the samples is measured at 570 nm using a spectrophotometer. […] This reading is subtracted from a background reading at 650 nm to improve data quality.

EPIDERM skin culture [2] = test: EPIDERM skin culture study: IL-1α response to fecal protease (trypsin-chymotrypsin) insult; format: cell-based, human; details: six hours, one value per set of experiments
Protocol: In order to evaluate the efficacy of the skin care solutions of the invention, a human skin culture was selected to model the response of the human epidermis. EPIDERM skin culture is a cornified, air-interfaced human skin culture. EPIDERM skin culture has multiple layers of progressively differentiated keratinocytes resembling human epidermis. EPIDERM EPI-200 skin culture can be purchased from MatTek Corporation of Ashland, MA. Experiments using EPIDERM skin culture are conducted in six well plates. Each well contains one milliliter of pre-warmed media that is the same as the EPIDERM skin culture media. The plates are then incubated in a 37° C., 5% CO2 incubator for thirty minutes. […]
After application of the insult solution, the well plates are incubated for six hours in the 37° C., 5% CO2 incubator. […] The response of the EPIDERM skin culture to the test compositions/control and the insult solution is determined by measuring the amount of interleukin-1 alpha (hereinafter “IL-1α”). Interleukin-1 alpha can be quantified using an Interleukin-1 alpha Quantikine Kit available from R&D Systems of Minneapolis, Minnesota. Interleukin-1 alpha measurements are converted to Loges for each of the treatments and the averages for each treatment are calculated. […]
(Test composition+insult) result=the measured amount of IL-1α from treatment with a test composition+protease insult. […]

SMILES	Viability (percentage) (EPIDERM skin culture [1])	Mean Reduction of Interleukin-1 Alpha (percentage) (EPIDERM skin culture [2]; 1% in PBS)	Mean Reduction of Interleukin-1 Alpha (percentage) (EPIDERM skin culture [2]; 10% in PBS)
O=C(O[C@@H]1Cc2c(O)cc(O)cc2O[C@@H]1c1cc(O)c(O)c(O)c1)c1cc(O)c(O)c(O)c1 [Epigallocatechin gallate]	103% and 101% and 112%	–	–
[Cl-].[Cl-].[Sr+2] [Strontium Chloride]	–	0% (10)	15% (10)
